The nature of the experiment: Compound was tested for the inhibition of [3H]-thymidine uptake in CHO p-5 cells transfected with human Dopamine receptor D4.2.

SMILES strings stand for the structures. Bounds are passed on as bounds.

As usually defined, the IC50 is the concentration that inhibits the measured activity by half.

In turn, `Cc1ccc(N2CCN(Cc3ccc4oc(=O)ccc4c3)CC2)cc1` [6-(4-p-Tolyl-piperazin-1-ylmethyl)-chromen-2-one] returned an IC50 of more than 1000 nM.
In the case of `Cc1ccc(N2CCN(Cc3ccc4ccc(=O)oc4c3)CC2)cc1Cl` [7-[4-(3-Chloro-4-methyl-phenyl)-piperazin-1-ylmethyl]-chromen-2-one], the IC50 came to 5.4 nM. That is a single-digit nanomolar value.

These data come from BindingDB's records for doi:10.1021/jm990266k (Warner-Lambert, 1999).
